Reference: patent publication US12171834B2, “Compositions and methods for inhibiting the activity of LAR family phosphatases” (CASE WESTERN RESERVE UNIVERSITY, priority 2012, dated 2024)
“And” between values parts separate entries of the source, which are not always exact repeats. Equal entries are not always repeated.

Experiments:
PTPσ = PTPσ (Homo sapiens, UniProt Q13332); experiment: pull-down assays, wedge domain with PTPσ; assay type: binding
full length LAR = full length LAR (Homo sapiens, UniProt P10586); experiment: pull-down assays, wedge domain with full length LAR; assay type: binding
[1] = test system: contusive spinal cord injury in adult female Sprague-Dawley rats; experiment: Basso, Beattie and Bresnahan (BBB) scale for post-SCI locomotion; assay type: in vivo, rat; details: for BBB recovery over the course of the next 10 weeks: after 2 weeks post injury; for BBB recovery over the course of the next 10 weeks / average BBB score: 5 μM, 500 μl subcutaneously daily
Experimental: (§1) This Example describes methods of generating a moderate/severe contusive spinal cord injury with the Infinite Horizon device in adult female Sprague-Dawley rats for spinal cord injury (SCI) assays used in Examples 5-8. Briefly, rats were deeply anesthetized with a cocktail of ketamine/xylazine. Once under, the back was shaved and sterilized with Iodine and ethanol. Using a dorsal entry, the […] vertebrae 7-10 were exposed by a skin incision and at segments 8 and 9 a laminectomy was performed to expose the intact spinal cord. The spinal column and cord were stabilized in a stereotaxic frame prior to contusive impact. Finally, rats underwent a 250 kd Infinite Horizon contusion centered at the midline with no dwell time. Following muscle suturing and skin stapling, the animals were placed on a 37° C. hot pad and allowed ample access to food and water upon awakening from surgery. Pain was monitored, and animals in distress received a low dose of Marcaine at the injection site. Saline and Gentamycin (antibiotic) were given for 5 days post-surgery to prevent bladder infections. This experiment was performed start to finish 3 times. N−=15 ISP, N=11 vehicle and N=6 ILP.
(§2) Animals were randomly divided into three groups, vehicle control, ISP, or ILP. Lyophilized ISP or ILP peptide was first dissolved in sterile water at a concentration of 2.5 mM. To create individual treatments for each animal, the peptide was further diluted to a concentration of 5 μM in a vehicle solution of 5% DMSO in sterile saline. 25 ml of each treatment (ILP, ISP or vehicle) was alliquoted into 50 individual Eppendorf tubes, each containing 500 μl. The drugs were stored at −20 and thawed immediately prior to use. Each animal received 500 μl of either vehicle, 5 μM ISP or 5 μM ILP subcutaneously into the back above the lesion each day, starting 1 day after injury and lasting 7 weeks (49 treatments, 11 μg/rat/day).
Animals were allowed to freely roam on a table-top for three minutes while their hindlimb movements and locomotor patterns were being scored by a blinded observer according to the Basso, Beattie and Bresnahan scale for post-SCI locomotion (Basso et al, 1995). Behavior was performed at post injury days 1, 4, 7 and then weekly for 10 additional weeks. Statistical analysis was conducted by repeated measures 2 way Anova.

[2] = test system: contusive spinal cord injury in adult female Sprague-Dawley rats; experiment: grid-walk test after spinal cord injury; assay type: in vivo, rat; details: 12 weeks after spinal cord injury; for foot faults in the grid walk test versus vehicle: vehicle 6 foot-faults per meter
Experimental: as §1
as §2, with “Each animal received 500 μl of either vehicle, 5 μM ISP or 5 μM ILP subcutaneously into the back above the lesion each day, starting 1 day after injury and lasting 7 weeks (49 treatments, 11 μg/rat/day).” left out
Animals were allowed to freely roam on a wire grid (100 cm×75 cm, with 1 cm^2 gaps in the wire) 12 weeks after spinal cord injury. While an overhead camera tracked and calculated the total distance traveled (Ethovision), the number of foot-faults was counted manually by a blinded observer. […]

[3] = test system: contusive spinal cord injury in adult female Sprague-Dawley rats; experiment: urinary behavior in metabolic cages after spinal cord injury; assay type: in vivo, rat
Experimental: as §1, §2
Animals were placed in metabolic cages overnight for a dark cycle (16 hours). The urine was separated and collected into a syringe linked to a force transducer. The increase in force corresponding to each individual void was plotted in spike-2. The graphs were sampled into excel and manually confirmed to count the total number of voids and the average volume of each void.

[4] = test system: adult dissociated dorsal root ganglia neurons on gradients of CSPG; experiment: spot assay: processes crossing CSPG (aggrecan) gradient; assay type: cell-based, rat; details: for neurons extend processes that cross CSPG gradients: peptide added at time of plating
Experimental: Adult female rat sensory dorsal root ganglion (DRG) neurons were obtained and grown on gradients of the chondroitin sulfate proteoglycan aggrecan as previously described. Glass bottom delta-T time-lapse dishes were coated with Poly-L-Lysine (PLL) and incubated at room temperature overnight. Spots were created by dissolving 2 mg/ml aggrecan in calcium and magnesium free hanks balanced salt solution (HBSS). Eight 2 μl dots were placed into one half of each dish and given ample time to dry onto the glass. The dishes were finally coated in 10 μg/ml laminin for 3 hours at 37° C. Following incubation, six thousand adult dissociated DRG neurons were added to each dish in neural basal-A media supplemented with Glutamax, Penn/strep and B27. […] In this Example, the spot assay was conducted on glass coverslips with a few alterations from the technique used for time-lapse microscopy. Following PLL treatment, the coverslips were dried and coated with a small amount of nitrocellulose to increase adhesive interactions needed for spot formation. Following drying of nitrocellulose, 4 spots were dotted onto each coverslip (one in each quadrant) using 700 μg/ml aggrecan, 5 μg/ml laminin dissolved into HBSS. Following drying, the coverslips were coated in 5 μg/ml laminin at 37 degrees C. for 3 hours. 2,000 adult dissociated dorsal root ganglia neurons were added to each coverslip in neural basal-A media supplemented with Glutamax, Penn/strep and B27. In addition, peptides were added at the required concentration at the time of plating. Cells were allowed to grow for 5 days prior to fixation in 4% Paraformaldehyde. These peptides were ordered from Genscript and dissolved in water and stored long-term at −80° C. Peptides were added to media at time of neuronal plating. After 5 days in vitro, the cells were fixed and stained for mouse anti-B3Tubulin (green). The number of processes completely spanning the gradient were counted and normalized to the number of neuronal cell bodies on each individual spot.

[5] = test system: contusive spinal cord injury in adult female Sprague-Dawley rats; experiment: terminal urodynamic analyses after spinal cord injury; assay type: in vivo, rat; details: 14 weeks post injury
Experimental: as §1, with “ILP. […]” for “ILP.”
In a terminal experiment, animals were anesthetized with Urethane at 14 weeks post injury. […] Both muscle activity and pressure (measured through the catheter) were plotted in spike2.

[6] = test system: 5HT expression in the lumbar spinal cord; experiment: 5HT expression (axonal density) in lumbar spinal cord after spinal cord injury; assay type: in vivo, rat
Experimental: as §1
as §2, with “Each animal received 500 μl of either vehicle, 5 μM ISP or 5 μM ILP subcutaneously into the back above the lesion each day, starting 1 day after injury and lasting 7 weeks (49 treatments, 11 μg/rat/day).” left out
For axonal density analysis, the gray matter was outlined and mean pixel intensity was calculated in ImageJ. […] One section selected randomly every 200 μm was analyzed over a total distance of 2 cm […]. […]

[7] = test system: contusive spinal cord injury in adult female Sprague-Dawley rats; experiment: recovery beyond vehicle across behaviors after spinal cord injury; assay type: in vivo, rat
Experimental: as §1
Animals were randomly divided into three groups, vehicle control, ISP, or ILP. Lyophilized ISP or ILP peptide was first dissolved in sterile water at a concentration of 2.5 mM. […]

[8] = test system: growth cones of adult sensory DRG neurons on gradients of CSPG aggrecan; experiment: time-lapse microscopy of growth cone motility in CSPG spot assay; assay type: cell-based, rat; details: 4-6 days in vitro
Experimental: Adult female rat sensory dorsal root ganglion (DRG) neurons were obtained and grown on gradients of the chondroitin sulfate proteoglycan aggrecan as previously described. Glass bottom delta-T time-lapse dishes were coated with Poly-L-Lysine (PLL) and incubated at room temperature overnight. Spots were created by dissolving 2 mg/ml aggrecan in calcium and magnesium free hanks balanced salt solution (HBSS). Eight 2 μl dots were placed into one half of each dish and given ample time to dry onto the glass. The dishes were finally coated in 10 μg/ml laminin for 3 hours at 37° C. Following incubation, six thousand adult dissociated DRG neurons were added to each dish in neural basal-A media supplemented with Glutamax, Penn/strep and B27. The cells were allowed to grow for 4-6 days Immediately prior to the start of time lapse, the delta T dishes were sealed with a glass coverslip. 100× time-lapse microscopy was performed with a heated objective and heated stage to keep the cells at 37 degrees. Images were obtained every 30 seconds and stitched together to create a time lapse movie. Growth cone and filopodial dynamics were tracked and quantified manually with Metamorph.

PTPσ, sequence (Q13332 30-1948): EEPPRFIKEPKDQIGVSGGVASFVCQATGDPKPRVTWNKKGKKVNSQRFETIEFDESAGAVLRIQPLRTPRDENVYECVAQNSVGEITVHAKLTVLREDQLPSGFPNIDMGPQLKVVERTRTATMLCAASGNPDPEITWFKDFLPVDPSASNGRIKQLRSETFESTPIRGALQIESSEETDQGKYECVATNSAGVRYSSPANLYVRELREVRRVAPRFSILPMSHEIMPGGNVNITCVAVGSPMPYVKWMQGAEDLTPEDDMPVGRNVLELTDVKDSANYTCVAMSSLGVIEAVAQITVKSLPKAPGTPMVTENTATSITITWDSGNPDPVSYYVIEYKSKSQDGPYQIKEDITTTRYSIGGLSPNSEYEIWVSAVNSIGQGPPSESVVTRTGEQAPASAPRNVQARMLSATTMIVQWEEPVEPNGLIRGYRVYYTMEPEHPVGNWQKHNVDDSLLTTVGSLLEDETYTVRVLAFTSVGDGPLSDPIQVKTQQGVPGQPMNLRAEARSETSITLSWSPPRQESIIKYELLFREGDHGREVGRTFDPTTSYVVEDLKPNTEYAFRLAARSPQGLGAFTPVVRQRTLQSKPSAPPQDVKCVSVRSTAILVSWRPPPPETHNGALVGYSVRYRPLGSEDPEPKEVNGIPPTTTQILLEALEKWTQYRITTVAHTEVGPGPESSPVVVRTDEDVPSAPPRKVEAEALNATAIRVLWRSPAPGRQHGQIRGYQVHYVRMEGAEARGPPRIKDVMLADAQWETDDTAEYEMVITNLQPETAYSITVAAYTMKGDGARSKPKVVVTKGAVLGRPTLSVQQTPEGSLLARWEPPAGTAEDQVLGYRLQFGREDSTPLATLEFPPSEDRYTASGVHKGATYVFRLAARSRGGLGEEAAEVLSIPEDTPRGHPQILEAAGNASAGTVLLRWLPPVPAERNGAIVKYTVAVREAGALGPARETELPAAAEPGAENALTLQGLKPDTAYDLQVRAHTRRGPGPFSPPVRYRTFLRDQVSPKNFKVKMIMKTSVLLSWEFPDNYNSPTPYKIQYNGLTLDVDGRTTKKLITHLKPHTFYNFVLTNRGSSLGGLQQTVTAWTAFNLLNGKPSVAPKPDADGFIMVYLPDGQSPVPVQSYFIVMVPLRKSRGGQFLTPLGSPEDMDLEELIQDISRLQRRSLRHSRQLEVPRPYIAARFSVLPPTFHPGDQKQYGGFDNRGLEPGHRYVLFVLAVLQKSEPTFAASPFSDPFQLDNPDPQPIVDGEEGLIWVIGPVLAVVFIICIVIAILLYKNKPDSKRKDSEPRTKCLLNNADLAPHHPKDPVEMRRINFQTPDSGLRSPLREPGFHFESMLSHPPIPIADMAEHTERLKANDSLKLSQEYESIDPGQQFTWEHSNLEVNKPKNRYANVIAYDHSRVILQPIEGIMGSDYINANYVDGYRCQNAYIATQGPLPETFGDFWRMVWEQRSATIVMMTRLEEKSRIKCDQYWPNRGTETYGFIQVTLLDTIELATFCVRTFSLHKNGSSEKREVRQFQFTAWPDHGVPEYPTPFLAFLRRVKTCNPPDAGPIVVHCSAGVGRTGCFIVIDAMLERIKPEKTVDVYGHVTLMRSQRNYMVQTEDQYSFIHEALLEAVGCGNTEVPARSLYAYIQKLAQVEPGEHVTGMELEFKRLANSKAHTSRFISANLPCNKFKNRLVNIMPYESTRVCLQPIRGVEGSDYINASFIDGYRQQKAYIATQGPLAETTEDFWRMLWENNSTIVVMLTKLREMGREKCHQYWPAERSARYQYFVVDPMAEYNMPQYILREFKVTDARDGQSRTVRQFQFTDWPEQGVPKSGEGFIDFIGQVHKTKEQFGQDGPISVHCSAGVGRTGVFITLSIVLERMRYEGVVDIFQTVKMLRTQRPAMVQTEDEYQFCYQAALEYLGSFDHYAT
full length LAR, sequence (P10586 30-1907, species assumed): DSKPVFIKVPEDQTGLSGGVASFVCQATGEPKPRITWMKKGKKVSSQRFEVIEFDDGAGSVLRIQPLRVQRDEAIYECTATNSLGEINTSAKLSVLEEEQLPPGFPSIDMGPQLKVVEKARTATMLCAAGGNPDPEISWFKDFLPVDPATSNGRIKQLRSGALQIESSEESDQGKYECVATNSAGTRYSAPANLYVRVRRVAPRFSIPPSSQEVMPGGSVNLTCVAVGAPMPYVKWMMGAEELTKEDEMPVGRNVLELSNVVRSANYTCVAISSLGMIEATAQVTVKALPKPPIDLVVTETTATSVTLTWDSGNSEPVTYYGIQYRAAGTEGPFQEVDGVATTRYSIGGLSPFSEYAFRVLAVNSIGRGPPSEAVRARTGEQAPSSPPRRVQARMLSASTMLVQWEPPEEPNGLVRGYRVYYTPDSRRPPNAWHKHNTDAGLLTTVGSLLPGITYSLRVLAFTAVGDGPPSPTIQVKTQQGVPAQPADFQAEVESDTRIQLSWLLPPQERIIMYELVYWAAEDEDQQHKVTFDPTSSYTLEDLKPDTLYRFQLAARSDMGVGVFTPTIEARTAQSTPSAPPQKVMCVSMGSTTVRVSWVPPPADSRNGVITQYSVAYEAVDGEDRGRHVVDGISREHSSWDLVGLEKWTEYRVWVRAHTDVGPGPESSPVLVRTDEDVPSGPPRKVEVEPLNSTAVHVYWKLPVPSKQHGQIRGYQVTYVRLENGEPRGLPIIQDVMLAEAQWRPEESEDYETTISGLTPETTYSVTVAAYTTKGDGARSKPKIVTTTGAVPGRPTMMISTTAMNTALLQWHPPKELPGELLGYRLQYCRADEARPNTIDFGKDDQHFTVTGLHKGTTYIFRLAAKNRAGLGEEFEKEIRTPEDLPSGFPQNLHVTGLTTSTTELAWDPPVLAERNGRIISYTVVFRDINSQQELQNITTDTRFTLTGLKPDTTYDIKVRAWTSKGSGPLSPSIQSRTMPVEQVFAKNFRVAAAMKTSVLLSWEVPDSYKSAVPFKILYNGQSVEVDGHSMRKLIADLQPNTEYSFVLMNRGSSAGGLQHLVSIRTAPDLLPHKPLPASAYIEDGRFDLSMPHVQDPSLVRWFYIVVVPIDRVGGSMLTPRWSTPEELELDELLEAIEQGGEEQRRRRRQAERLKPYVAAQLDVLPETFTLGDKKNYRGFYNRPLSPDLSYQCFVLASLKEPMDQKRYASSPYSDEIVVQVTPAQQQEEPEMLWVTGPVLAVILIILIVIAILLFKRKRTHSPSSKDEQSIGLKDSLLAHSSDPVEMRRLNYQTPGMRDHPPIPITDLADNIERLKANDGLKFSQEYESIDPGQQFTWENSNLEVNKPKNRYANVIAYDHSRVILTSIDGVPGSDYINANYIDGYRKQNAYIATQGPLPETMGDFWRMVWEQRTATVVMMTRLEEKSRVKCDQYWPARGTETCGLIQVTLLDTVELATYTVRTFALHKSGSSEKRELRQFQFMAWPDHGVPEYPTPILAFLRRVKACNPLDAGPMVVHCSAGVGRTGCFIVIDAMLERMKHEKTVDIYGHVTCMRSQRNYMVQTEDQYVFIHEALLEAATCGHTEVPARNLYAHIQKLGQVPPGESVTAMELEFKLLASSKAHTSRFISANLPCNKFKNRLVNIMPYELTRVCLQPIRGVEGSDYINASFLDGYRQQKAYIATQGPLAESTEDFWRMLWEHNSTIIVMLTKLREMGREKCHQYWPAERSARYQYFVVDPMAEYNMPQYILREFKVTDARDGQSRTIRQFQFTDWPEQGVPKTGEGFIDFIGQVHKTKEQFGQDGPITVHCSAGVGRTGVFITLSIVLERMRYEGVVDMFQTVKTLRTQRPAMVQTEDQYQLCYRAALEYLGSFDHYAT

DLADNIERLKANDGLKFSQEYESI (listed as Rattus rattus) [wedge domain of LAR, 24 amino acid wedge-shaped helix-loop-helix motif of LAR used in pull-down assays]
binding to sigma (PTPσ): unable to bind to sigma | interaction with full length LAR (full length LAR): able to specifically interact with full length LAR

NH2GRKKRRQRRRCDLADNIERLKANDGLKFSQEYESI-NH2 (H-GRKKRRQRRRCDLADNIERLKANDGLKFSQEYESI-NH2; listed as Homo sapiens) [ILP, LAR wedge domain peptide conjugated to HIV-TAT]
BBB recovery over the course of the next 10 weeks [1]: recovered only slightly beyond this point | foot faults in the grid walk test versus vehicle [2]: very slight insignificant improvement | void frequency (absolute) ([3]; naïve animals urinate twice per hour): once every two hours | volume/void ([3]; versus naïve animals): significantly increased | neurons extend processes that cross CSPG gradients ([4]; 5 days in vitro): also allows neurons to traverse gradients of CSPG

NH2GRKKRRQRRRCDMAEHMERLKANDSLKLSQEYESI-NH2 [ISP]
average BBB score ([1]; 6 weeks): 12 | average BBB score ([1]; 7 weeks): greater than 13 | BBB recovery over the course of the next 10 weeks [1]: continued to recover | BBB score reached by individual animals ([1]; individual animals): 19 and 18.5 | animals that regained at least frequent coordinated stepping ([1]; rat, in vivo): 7 of 15 | coordinated bladder contractions with external urethral sphincter bursting [5]: many animals recovered coordinated bladder contractions with patterned external urethral sphincter bursting | 5HT staining throughout the gray matter ([6]; 14 weeks following spinal cord injury, lumbar spinal cord): dramatic increase | quantified 5HT expression throughout the gray matter ([6]; FIG. 15): significantly increased | 5HT expression in non-responders ([6]; the two ISP non-responders): did not show a dramatic rise | foot faults made by several individual animals ([2]; several animals): less than 3 foot faults | foot faults in the grid walk test versus vehicle [2]: significantly fewer foot faults | animals with significant behavioral improvements ([7]; greater than two standard deviations better than vehicle mean): 13 of 15 | animals regaining significant function in all three behaviors ([7]; rat, in vivo): 4 animals | axonal stabilization and over adhesion in time-lapse [8]: prevented axonal stabilization and over adhesion | growth cones still motile ([8]; 8% in the control condition): 65% | recovery of void frequency ([3]; 4 or 8 weeks post injury): no significant recovery | void frequency ([3]; 12 weeks post injury): significant increase in void frequency | animals reaching naïve micturition frequency ([3]; rat, in vivo): multiple animals reaching normal (naïve) micturition frequency levels | increase of post-injury void frequency on average ([3]; versus vehicle): two fold | dose dependence of gradient crossing [4]: dose dependent | concentration giving optimal crossing of CSPG gradient ([4]; 5 days in vitro): 2.5 μm | neurons extend processes that cross CSPG gradients ([4]; 5 days in vitro): allows neurons to extend processes that cross CSPG gradients

NH2GRKKRRQRRRCIREDDSLMLYALAQEKKESNMHES-NH2 (H-GRKKRRQRRRCIREDDSLMLYALAQEKKESNMHES-NH2; listed as Homo sapiens) [scrambled ISP-TAT peptide, reference compound]
neurons extend processes that cross CSPG gradients ([4]; 5 days in vitro): Neither vehicle control nor the scrambled ISP-TAT peptide allowed neuronal extensions across the gradient
